Peptide text beside a SMILES is read from it.
Experiment: Displacement of 5'-fluorescein(FAM)-QLDLF-OH from Escherichia coli AN1459 DNA polymerase 3beta by fluorescence polarization assay

| Molecule | IC50 [µM] | Kd [µM] |
| --- | --- | --- |
| Ac-QLGLF-OH | 10.4 | 4.9 |
| Ac-QADLF-OH | 78.6 | 36.7 |
| Ac-QGDLF-OH | 36.1 | 16.8 |
| Ac-ALDLF-OH | 603 | 281 |
| Ac-QLDLA-OH | 555 | 259 |
| Ac-NLDLF-OH | 43.6 | 20.3 |
| CC(=O)N[C@@H](CC(C)C)C(=O)N[C@@H](Cc1ccccc1)C(=O)O (Ac-Leu-Phe-OH) | 1100 |  |
| Ac-QLDLG-OH | 1070 | 498 |
| CC(C)CCC(=O)N[C@@H](Cc1ccccc1)C(=O)O | 4440 |  |
| Ac-QVDLF-OH | 60.4 | 28.2 |
| Ac-QLDLL-OH | 21 | 9.8 |
| Ac-ELDLF-OH | 222 | 104 |
| Ac-QLALF-OH | 3.4 | 1.6 |
| Ac-QLDAF-OH | 247 | 115 |
| Ac-QLDVF-OH | 1220 | 567 |
| CC(=O)N[C@@H](CCC(N)=O)C(=O)N[C@@H](CC(C)C)C(=O)N[C@@H](CC(=O)O)C(=O)N[C@@H](CC(C)C)C(=O)N[C@@H](Cc1ccccc1)C(=O)O | 1.9 | 0.9 |
| CC(C)C[C@H](NC(=O)[C@H](CC(=O)O)NC(=O)[C@H](CC(C)C)NC(=O)[C@@H](N)CCC(N)=O)C(=O)N[C@@H](Cc1ccccc1)C(=O)O | 63.2 | 29.5 |
| Ac-QLDGF-OH | 1520 | 711 |
| Ac-GLDLF-OH | 976 | 456 |

— ChEMBL document CHEMBL3085717, “Structural and thermodynamic dissection of linear motif recognition by the E. coli sliding clamp” (J Med Chem, 2013)
